In ChEMBL document CHEMBL1146354, “Synthesis, cytotoxicity, and DNA topoisomerase II inhibitory activity of benzofuroquinolinediones” (Bioorg Med Chem, 2007) one finds IC50 and inhibition data, which are given here for 18 molecules.

Molecules are shown by their SMILES.

The IC50 is the concentration that gives 50% inhibition. What is called inhibition is the drop in the measured response relative to a control, in per cent. Low values mean a response near the control, high ones a response far below the control.

The subject of experiment [1] is A549. Description: Cytotoxicity against human A549 cells by SRB assay. Type of experiment: functional, cell-based.
For experiment [2], the system named is SNU-638. The experiment is described as follows: Cytotoxicity against human SNU638 cells by SRB assay. Type of experiment: functional, cell-based. A general note: In SRB staining, fixed cells bind dye roughly in proportion to their protein.
The subject of experiment [3] is HCT-116. Description: Cytotoxicity against human HCT116 cells by SRB assay. It is filed as functional, cell-based.
Experiment [4] deals with HT-1080. The experiment is described as follows: Cytotoxicity against human HT1080 cells by SRB assay. It is filed as functional, cell-based.
Experiment [5] relates to HL-60. Description: Cytotoxicity against human HL60 cells by SRB assay. It is filed as functional, cell-based.
The subject of experiment [6] is SK-OV-3. Description: Cytotoxicity against human SK-OV-3 cells by SRB assay. Type of experiment: functional, cell-based.
Experiment [7] relates to SK-MEL-2. Description: Cytotoxicity against human SK-MEL-2 cells by SRB assay. It is filed as functional, cell-based.
Experiment [8] deals with XF498. The experiment is described as follows: Cytotoxicity against human XF498 cells by SRB assay. It is filed as functional, cell-based.
For experiment [9], the species on record is Homo sapiens. Description: Inhibition of human topoisomerase 2-mediated KDNA decatenation activity at 5 uM after 10 mins relative to control.
Experiment [10] concerns the target T1, DNA topoisomerase 1 (Homo sapiens) (UniProt P11387).
T1 sequence (whole entry): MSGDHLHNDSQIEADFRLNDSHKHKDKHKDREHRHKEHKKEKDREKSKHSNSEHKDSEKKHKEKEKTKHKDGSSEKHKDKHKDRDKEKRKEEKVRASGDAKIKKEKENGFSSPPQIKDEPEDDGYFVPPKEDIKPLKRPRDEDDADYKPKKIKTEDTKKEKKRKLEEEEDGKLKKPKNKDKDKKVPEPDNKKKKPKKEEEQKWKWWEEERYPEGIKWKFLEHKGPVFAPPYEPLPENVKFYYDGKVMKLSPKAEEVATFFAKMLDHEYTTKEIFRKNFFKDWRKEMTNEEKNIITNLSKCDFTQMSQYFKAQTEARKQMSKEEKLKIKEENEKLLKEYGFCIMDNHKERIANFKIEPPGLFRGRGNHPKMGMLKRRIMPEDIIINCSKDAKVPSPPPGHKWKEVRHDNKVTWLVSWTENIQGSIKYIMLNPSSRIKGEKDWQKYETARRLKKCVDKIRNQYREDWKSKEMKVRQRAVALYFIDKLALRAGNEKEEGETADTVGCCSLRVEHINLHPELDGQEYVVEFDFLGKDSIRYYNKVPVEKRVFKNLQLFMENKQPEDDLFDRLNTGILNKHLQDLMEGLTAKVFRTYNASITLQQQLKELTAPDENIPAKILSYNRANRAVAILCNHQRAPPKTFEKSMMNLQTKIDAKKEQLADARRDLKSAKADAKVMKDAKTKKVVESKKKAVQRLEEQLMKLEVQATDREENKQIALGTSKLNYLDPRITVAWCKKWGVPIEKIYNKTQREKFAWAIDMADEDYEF
Description: Inhibition of human topoisomerase 1-mediated DNA relaxation activity at 5 uM after 10 mins relative to control.

The target in experiment [11] is T2, DNA topoisomerase 1 (Homo sapiens, UniProt P11387).
T2 sequence (P11387 whole entry): T1 sequence (whole entry)
Description: Inhibition of human topoisomerase 1 […].

For experiment [12], the species on record is Homo sapiens. Description: Inhibition of human topoisomerase 2-mediated KDNA decatenation activity at 200 uM after 10 mins relative to control.
A short description of experiment [13]: Inhibition of human topoisomerase 2 […].

For the molecule `CCN(CC)CCOc1cc2oc3c(c2cc1Cl)C(=O)c1cccnc1C3=O`, the IC50 was 90 nM in experiment [1]; 140 nM in experiment [2]; 130 nM in experiment [3]; 150 nM in [4]; 310 nM in experiment [5]; 250 nM in [6]. For the same molecule, the values for the IC50 in experiment [7] and in experiment [8] were 240 nM and 400 nM, respectively. In addition, the inhibition in experiment [9] turned out to be 47%; in experiment [10], 0%.
Take `CC(CN(C)C)Oc1ccc2c3c(oc2c1)C(=O)c1ccccc1C3=O` (centres undefined): the IC50 in experiment [1] is 370 nM; in experiment [2], 880 nM; in [3], 270 nM; in experiment [4], 270 nM; in experiment [5], 250 nM; in experiment [6] it was 2260 nM. For the same molecule, the results for the IC50 in experiment [7], in experiment [8] and in experiment [11] were 1520 nM, 1750 nM and 59500 nM, respectively. For the same molecule, the values for the inhibition in experiment [9] and in [10] were 84% and 12%, respectively.
As to `CC(C)N(CCOc1ccc2c3c(oc2c1)C(=O)c1ncccc1C3=O)C(C)C`, the IC50 in [1] is 370 nM; in experiment [2], 450 nM; in experiment [3] it was 180 nM; in [4] it was 180 nM; in experiment [5] it was 80 nM; in [6] it was 1020 nM. Also, the IC50 in experiment [7] and in [8] was 940 nM in each case. Moreover, the inhibition in [9] was 71%; in [10], 0%.
As to `CC(COc1cc2oc3c(c2cc1Cl)C(=O)c1cccnc1C3=O)N(C)C` (centres undefined), the IC50 was 90 nM in experiment [1]; 180 nM in experiment [2]; 140 nM in [3]; 110 nM in [4]; 220 nM in experiment [5]; 150 nM in experiment [6]. Moreover, the IC50 in experiment [7] and in experiment [8] was 140 nM each time. For the same molecule, the inhibition in experiment [9] is 59%; in experiment [10], 0%.
For `CC(CN(C)C)Oc1cc2oc3c(c2cc1Cl)C(=O)c1cccnc1C3=O` (centres undefined), the IC50 in experiment [1] was 100 nM; in experiment [2], 100 nM; in experiment [3], 130 nM; in experiment [4] it was 100 nM; in [5], 60 nM; in experiment [6] it was 150 nM. Also, the IC50 in experiment [7] is 150 nM; in experiment [8], 170 nM. The figures for the inhibition in [9] and in experiment [10] were 11% and 0%, respectively.
For `COc1cc([C@@H]2c3cc4c(cc3[C@@H](O[C@@H]3O[C@@H]5CO[C@@H](C)O[C@H]5[C@H](O)[C@H]3O)[C@H]3COC(=O)[C@H]23)OCO4)cc(OC)c1O` [ETOPOSIDE], the results for the IC50 in experiment [3], in [5] and in [13] were 1870 nM, 370 nM and 78400 nM, respectively. In experiment [12], this molecule showed an inhibition of 89%.
Consider `CC(CN(C)C)Oc1cc2oc3c(c2cc1Cl)C(=O)c1ccccc1C3=O` (centres undefined), for which the IC50 stood at 620 nM in experiment [1]; 100 nM in experiment [2]; 420 nM in experiment [3]; 490 nM in experiment [4]; 670 nM in experiment [5]; 550 nM in experiment [6]. Moreover, the IC50 amounted to 340 nM in experiment [7] and 550 nM in experiment [8]. For the same molecule, the values for the inhibition in experiment [9] and in experiment [10] were 88% and 6%, respectively.
`COc1cccc2c1C(=O)c1c(O)c3c(c(O)c1C2=O)C[C@@](O)(C(=O)CO)C[C@@H]3O[C@H]1C[C@H](N)[C@H](O)[C@H](C)O1` [DOXORUBICIN]: the IC50 amounted to 150 nM in [1]; 60 nM in experiment [2]; 620 nM in experiment [3]; 60 nM in [4]; 40 nM in experiment [5]; 290 nM in experiment [6]. Further, the values for the IC50 in experiment [7], in experiment [8] and in experiment [13] were 70 nM, 40 nM and 2670 nM, respectively. Further, the inhibition in [9] was determined as 78%.
As to `CCN(CC)CCOc1ccc2c3c(oc2c1)C(=O)c1ccccc1C3=O`, the IC50 in [1] is 1090 nM; in experiment [2], 3110 nM; in [3] it was 1680 nM; in experiment [4], 2190 nM; in experiment [5] it was 650 nM; in experiment [6], above 20000 nM. The IC50 in experiment [7] and in experiment [8] was above 20000 nM in each case. Besides, the figures for the inhibition in [9] and in experiment [10] were 91% and 12%, respectively.
On to `CC(COc1ccc2c3c(oc2c1)C(=O)c1ccccc1C3=O)N(C)C` (centres undefined), for which the IC50 in experiment [1] turned out to be 210 nM; in [2], 840 nM; in experiment [3] it was 2200 nM; in [4], 340 nM; in experiment [5], 390 nM; in [6], 19000 nM. Moreover, the IC50 came to 2150 nM in experiment [7], 4690 nM in experiment [8], 1190 nM in experiment [13] and 42000 nM in experiment [11]. The results for the inhibition in experiment [9] and in experiment [10] were 100% and 14%, respectively.
Regarding `CC(C)N(CCOc1cc2oc3c(c2cc1Cl)C(=O)c1ccccc1C3=O)C(C)C`, the IC50 in experiment [1], in experiment [2], in experiment [3], in experiment [4], in experiment [5] and in experiment [6] was above 20000 nM in each case. Further, the IC50 in experiment [7] and in experiment [8] was above 20000 nM each time. In addition, the inhibition in [9] came out at 59%; in experiment [10], 14%.
As for `CC(CN(C)C)Oc1ccc2c3c(oc2c1)C(=O)c1ncccc1C3=O` (centres undefined), the IC50 was 60 nM in experiment [1]; 140 nM in [2]; 80 nM in experiment [3]; 170 nM in experiment [4]; 90 nM in experiment [5]; 150 nM in experiment [6]. Besides, the IC50 worked out at 150 nM in experiment [7] and 120 nM in [8]. Besides, the inhibition was 24% in [9] and 0% in [10].
In the case of `CCN(CC)CCOc1ccc2c3c(oc2c1)C(=O)c1ncccc1C3=O`, the IC50 worked out at 50 nM in experiment [1]; 140 nM in experiment [2]; 60 nM in experiment [3]; 70 nM in [4]; 250 nM in experiment [5]; 270 nM in experiment [6]. In addition, the IC50 in [7] stood at 160 nM; in experiment [8], 140 nM; in [13], 680 nM; in experiment [11], 64300 nM. The inhibition came out at 100% in experiment [9] and 0% in experiment [10].
For the molecule `CC(COc1cc2oc3c(c2cc1Cl)C(=O)c1ccccc1C3=O)N(C)C` (centres undefined), the IC50 in [1] came out at 450 nM; in [2], 1140 nM; in experiment [3], 340 nM; in experiment [4], 650 nM; in [5] it was 630 nM; in experiment [6] it was 650 nM. Moreover, the figures for the IC50 in experiment [7] and in [8] were 500 nM and 550 nM, respectively. The inhibition in [9] turned out to be 68%; in [10] it was 0%.
On to `CC(C)N(CCOc1cc2oc3c(c2cc1Cl)C(=O)c1cccnc1C3=O)C(C)C`, for which the IC50 in experiment [1] amounted to 180 nM; in experiment [2] it was 530 nM; in experiment [3] it was 410 nM; in experiment [4], 220 nM; in experiment [5] it was 700 nM; in experiment [6], 750 nM. The IC50 amounted to 730 nM in experiment [7] and 910 nM in experiment [8]. Moreover, the inhibition in experiment [9] was 35%; in experiment [10], 0%.
For `CCN(CC)CCOc1cc2oc3c(c2cc1Cl)C(=O)c1ccccc1C3=O`, the IC50 in [1] is 1590 nM; in experiment [2], 2770 nM; in [3], 1520 nM; in experiment [4], 2730 nM; in [5], 2270 nM; in [6], above 20000 nM. Also, the figures for the IC50 in experiment [7] and in [8] were 5730 nM and above 20000 nM, respectively. Moreover, the inhibition in [9] stood at 50%; in experiment [10], 19%.
`CC(COc1ccc2c3c(oc2c1)C(=O)c1ncccc1C3=O)N(C)C` (centres undefined): the IC50 in [1] is 20 nM; in experiment [2] it was 110 nM; in experiment [3], 70 nM; in [4], 60 nM; in [5], 180 nM; in experiment [6], 80 nM. The IC50 worked out at 90 nM in experiment [7] and 100 nM in [8]. Further, the inhibition in experiment [9] was found to be 67%; in [10] it was 0%.
Turning to `CC(C)N(CCOc1ccc2c3c(oc2c1)C(=O)c1ccccc1C3=O)C(C)C`, the IC50 in [1] amounted to 2010 nM; in experiment [2], 2570 nM; in experiment [3] it was 1390 nM; in experiment [4] it was 1020 nM; in [5] it was 1110 nM; in experiment [6] it was 3550 nM. Besides, the IC50 in [7] worked out at 1530 nM; in experiment [8], 3170 nM. The inhibition in experiment [9] came out at 36%; in experiment [10], 10%.
